Legend:
Type in all cases: in vivo
[1] = system: Beet Armyworm (Spodoptera exigua, LAPHEG); test: Bioassays on Beet Armyworm (BAW), 128-well diet tray assay; details: Spodoptera exigua; Beet Armyworm, Table ABC / ABC-DP rating; read-out: BAW rating
How it was run: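 Eight diet wells per compound were treated at 50 μg/cm^2 (acetone-water 90:10), dried, then infested with 1–5 second-instar larvae each. After five to seven days at 25 °C under 14:10 photoperiod, mortality was scored and averaged across wells.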

[2] = system: Cabbage Looper (Trichoplusia ni, TRIPNI); test: Bioassays on Cabbage Looper (CL), 128-well diet tray assay; details: Trichoplusia ni; Cabbage Looper, Table ABC / ABC-DP rating; read-out: CL rating
How it was run: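 Second-instar larvae (1–5 per well) placed on artificial diet surface-treated with 50 μg/cm^2 test molecule applied in 90:10 acetone-water and dried. Held at 25° C., 14:10 light-dark, for five to seven days. Percent mortality scored per well and averaged over eight wells.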

[3] = system: Yellow Fever Mosquito (Aedes aegypti, AEDSAE); details: Yellow Fever Mosquito, Table ABC / ABC-DP rating
How it was run: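 Rating-scale grades reflect larval mortality scored per well after 3 days at room temperature under non-evaporative lids. Larvae (~1 day old, hatched overnight in liver-powder water) were added to six daughter plates per compound, prepared from a 4000 ppm DMSO stock diluted in 90:10 water/acetone.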

SMILES | pest or weed control at 50 µg/cm2 [1] | pest or weed control at 50 µg/cm2 [2] | YFM rating [3]
CN(C(=O)c1cc(NC(=O)[C@H]2[C@H](c3ccc(Cl)c(Cl)c3)C2(Cl)Cl)ccc1Cl)c1ccc(F)c(NC(=O)C(F)(F)F)c1F [F1792, 2-Chloro-5-((1R,3R)-2,2-dichloro-3-(3,4-dichlorophenyl)cyclopropane-1-carboxamido)-N-(2,4-difluoro-3-(2,2,2-trifluoroacetamido)phenyl)-N-methylbenzamide] | 50 to 100% | 50 to 100% | A (80–100)
CN(C(=O)c1cc(NC(=O)[C@H]2[C@H](c3ccc(Cl)c(Cl)c3)C2(Cl)Cl)ccc1Cl)c1ccc(F)c(NC(=O)COC(F)(F)F)c1F [F1793, 2-Chloro-5-((1R,3R)-2,2-dichloro-3-(3,4-dichlorophenyl)cyclopropane-1-carboxamido)-N-(2,4-difluoro-3-(2-(trifluoromethoxy)acetamido)phenyl)-N-methylbenzamide] | 50 to 100% | 50 to 100% | A (80–100)
CCOC(C)C(=O)Nc1c(F)ccc(N(C)C(=O)c2cc(NC(=O)[C@H]3[C@H](c4ccc(Cl)c(Cl)c4)C3(Cl)Cl)ccc2Cl)c1F (stereo partly drawn) [F1794, 2-Chloro-5-((1R,3R)-2,2-dichloro-3-(3,4-dichlorophenyl)cyclopropane-1-carboxamido)-N-(3-(2-ethoxypropanamido)-2,4-difluorophenyl)-N-methylbenzamide] | 50 to 100% | 50 to 100% | B (More than 0 – Less than 80)
CN(C(=O)c1cc(NC(=O)[C@H]2[C@H](c3ccc(F)c(C(F)(F)F)c3)C2(Cl)Cl)ccc1Cl)c1ccc(F)c(NC(=O)C(F)(F)F)c1F [F1795, 2-Chloro-5-((1R,3R)-2,2-dichloro-3-(4-fluoro-3-(trifluoromethyl)phenyl)cyclopropane-1-carboxamido)-N-(2,4-difluoro-3-(2,2,2-trifluoroacetamido)phenyl)-N-methylbenzamide] | 50 to 100% | 50 to 100% | A (80–100)
CN(C(=O)c1cc(NC(=O)[C@H]2[C@H](c3ccc(F)c(C(F)(F)F)c3)C2(Cl)Cl)ccc1Cl)c1ccc(F)c(NC(=O)COC(F)(F)F)c1F [F1796, 2-Chloro-5-((1R,3R)-2,2-dichloro-3-(4-fluoro-3-(trifluoromethyl)phenyl)cyclopropane-1-carboxamido)-N-(2,4-difluoro-3-(2-(trifluoromethoxy)acetamido)phenyl)-N-methylbenzamide] | 50 to 100% | 50 to 100% | A (80–100)
CCOC(C)C(=O)Nc1c(F)ccc(N(C)C(=O)c2cc(NC(=O)[C@H]3[C@H](c4ccc(F)c(C(F)(F)F)c4)C3(Cl)Cl)ccc2Cl)c1F (stereo partly drawn) [F1797, 2-Chloro-5-((1R,3R)-2,2-dichloro-3-(4-fluoro-3-(trifluoromethyl)phenyl)cyclopropane-1-carboxamido)-N-(3-(2-ethoxypropanamido)-2,4-difluorophenyl)-N-methylbenzamide] | 50 to 100% | 50 to 100% | A (80–100)
CN(C(=O)c1cc(NC(=O)[C@H]2[C@H](c3ccc(F)c(C(F)(F)F)c3)C2(Cl)Cl)ccc1Cl)c1ccc(F)c(NC(=O)C2CCCO2)c1F (stereo partly drawn) [F1798, N-(3-(2-Chloro-5-((1R,3R)-2,2-Dichloro-3-(4-fluoro-3-(trifluoromethyl)phenyl)cyclopropane-1-carboxamido)-N-methylbenzamido)-2,6-difluorophenyl)tetrahydrofuran-2-carboxamide] | 50 to 100% | 50 to 100% | B (More than 0 – Less than 80)
CC(=O)Nc1c(F)ccc(N(C)C(=O)c2cc(NC(=O)[C@H]3[C@H](c4ccc(F)c(C(F)(F)F)c4)C3(Cl)Cl)ccc2Cl)c1F [F1799, N-(3-Acetamido-2,4-difluorophenyl)-2-chloro-5-((1R,3R)-2,2-dichloro-3-(4-fluoro-3-(trifluoromethyl)phenyl)cyclopropane-1-carboxamido)-N-methylbenzamide] | 50 to 100% | 50 to 100% | A (80–100)
O=C(CCC(F)(F)F)Nc1c(F)ccc(NC(=O)c2cc(NC(=O)[C@H]3[C@H](c4ccc(F)c(C(F)(F)F)c4)C3(Cl)Cl)ccc2Cl)c1F [F1800, 2-Chloro-5-((1R,3R)-2,2-dichloro-3-(4-fluoro-3-(trifluoromethyl)phenyl)cyclopropane-1-carboxamido)-N-(2,4-difluoro-3-(4,4,4-trifluorobutanamido)phenyl)benzamide] | 50 to 100% | 50 to 100% | A (80–100)
O=C(COC(F)(F)C(F)(F)F)Nc1c(F)ccc(NC(=O)c2cc(NC(=O)[C@H]3[C@H](c4ccc(F)c(C(F)(F)F)c4)C3(Cl)Cl)ccc2Cl)c1F [F1808, 2-Chloro-5-((1R,3R)-2,2-dichloro-3-(4-fluoro-3-(trifluoromethyl)phenyl)cyclopropane-1-carboxamido)-N-(2,4-difluoro-3-(2-(perfluoroethoxy)acetamido)phenyl)benzamide] | 50 to 100% | 50 to 100% | B (More than 0 – Less than 80)
CC1(C(=O)Nc2c(F)ccc(NC(=O)c3cc(NC(=O)[C@H]4[C@H](c5ccc(F)c(C(F)(F)F)c5)C4(Cl)Cl)ccc3Cl)c2F)CCCO1 (stereo partly drawn) [F1809, N-(3-(2-Chloro-5-((1R,3R)-2,2-dichloro-3-(4-fluoro-3-(trifluoromethyl)phenyl)cyclopropane-1-carboxamido)benzamido)-2,6-difluorophenyl)-2-methyltetrahydrofuran-2-carboxamide] | 50 to 100% | 50 to 100% | A (80–100)
C#CCN(C(=O)CC#N)c1c(F)ccc(NC(=O)c2cc(NC(=O)[C@H]3[C@H](c4ccc(F)c(C(F)(F)F)c4)C3(Cl)Cl)ccc2Cl)c1F [F1810, 2-Chloro-N-(3-(2-cyano-N-(prop-2-yn-1-yl)acetamido)-2,4-difluorophenyl)-5-((1R,3R)-2,2-dichloro-3-(4-fluoro-3-(trifluoromethyl)phenyl)cyclopropane-1-carboxamido)benzamide] | 50 to 100% | 50 to 100% | A (80–100)
O=C(Nc1ccc(F)c(NC(=O)C(F)(F)F)c1)c1cc(NC(=O)[C@H]2[C@H](c3ccc(Cl)c(Cl)c3)C2(Cl)Cl)ccc1Cl [F1812, 2-Chloro-5-((1R,3R)-2,2-dichloro-3-(3,4-dichlorophenyl)cyclopropane-1-carboxamido)-N-(4-fluoro-3-(2,2,2-trifluoroacetamido)phenyl)benzamide] | 50 to 100% | 50 to 100% | B (More than 0 – Less than 80)
O=C(Nc1ccc(F)c(NC(=O)C(F)(F)F)c1)c1cc(NC(=O)[C@H]2[C@H](c3cc(Cl)cc(Cl)c3)C2(Cl)Cl)ccc1Cl [F1813, 2-Chloro-5-((1R,3R)-2,2-dichloro-3-(3,5-dichlorophenyl)cyclopropane-1-carboxamido)-N-(4-fluoro-3-(2,2,2-trifluoroacetamido)phenyl)benzamide] | 50 to 100% | 50 to 100% | A (80–100)
